Measurements: patent US5658938A, “Substituted 1H-imidazoles” (U C B S.A., priority 1994, dated 1997)
Like-named read-outs stand apart in the source and are kept apart here.

How the values were obtained:
α-adrenergic receptors = settings: cited from earlier work
[1] = tested on: coronary occlusion in the rat; experiment: Anti-ischemic and anti-hypertensive activity: coronary occlusion in the anesthetized rat (elevation of the T wave of the electrocardiogram, arterial pressure); type: in vivo, male albino rat of the Sprague-Dawley strain; settings: Rattus norvegicus, iv
Text: The cardiac anti-ischemic activity of compounds manifests itself by their capacity to oppose the elevation of the T wave of the electrocardiogram, induced by a coronary occlusion in the rat. Continuous monitoring of the arterial pressure also enables to reveal the anti-hypertensive effects. The animal used for the test is a male albino rat of the Sprague-Dawley strain, weighing 220 to 280 g. On the day of the experiment, the animal is anesthetized by intraperitoneal administration of pentobarbital (60 mg/kg), then placed under endotracheal intubation. A ligature system is fitted around the descending left anterior coronary artery according to the procedure of Johnston et el. (Can. J. Physiol. Pharmacol., 61 (1983), 1340-1353). After closing the thorax, three electrodes are arranged on the body of the animal ("V4" thoracic derivation), in order to continuously record the shape of the electrocardiogram signal (in particular the T wave). Catheters are introduced into the right carotid artery and the right jugular vein to measure the arterial pressure and to administer intravenously the compound tested or the vehicle solution. Four 45 second coronary occlusions are performed, separated by episodes of reperfusion of 30, 35 and 30 minutes respectively. The compound to be studied or the vehicle are administered intravenously in bolus, 30 minutes before occlusion 3. The T electrocardiographic signal and the arterial pressure are continuously measured during the entire experiment.
The effects of the compounds according to the invention are quantified by comparing the amplitude of the elevation of the T wave at occlusions 3 and 4 (that is 30 minutes and 60 minutes after administration) with its value at occlusion 2 (that is before administration).
the second column indicates the dose of compound administered, expressed in mole/kg;
the third and the fourth columns indicate the anti-ischemic effect caused by administering the compound tested. The anti-ischemic effect represents the reduction in the elevation of the T wave caused by coronary occlusions 3 and 4, expressed in % with respect to occlusion 2, before administration of the compound (ΔT3 and ΔT4 respectively);
the fifth and sixth columns indicate the anti-hypertensive effect caused by administration of the compound tested. The anti-hypertensive effect is expressed as the maximum lowering of arterial pressure, measured a) between 5 and 30 minutes, and b) between 30 and 60 minutes after intravenous injection of the compound tested (ΔPa and ΔPb respectively). This lowering is expressed in % with respect to the value measured before injection.

[2] = tested on: presynaptic α2 -adrenergic receptors; experiment: Inhibition of the contraction of the electrically stimulated guinea pig ileum (presynaptic α2-agonist activity); settings: guinea pig ileum longitudinal muscle strips, electrical stimulation
Text: Longitudinal muscle strips attached to an isometric strain gauge are suspended in Tyrode's solution and are stretched under a tension of 1 g (G. M. Drew, Brit. J. Pharmacol. 64, (1978), 293-300; M. Andrejak et al., Naunyn-Schmiedeberg's Arch. Pharmacol. 314, (1980), 83-87).
Electrical stimulation of the parasympathetic nerves associated with the ileum fragments causes a contraction of the muscle. This contraction is reduced in the presence of a presynaptic α2 -agonist and the magnitude by which the contraction is reduced depends on the concentration of the agonist used. This effect is antagonised by the simultaneous presence of an α2 -antagonist such as alpha-yohimbine.
The IC30 concentration (in mole/l) that reduces by 30% the intensity of the contraction of the muscle is determined.

[3] = target: T1, postsynaptic α1 -adrenergic receptor (Rattus norvegicus, UniProt P23944); experiment: Postsynaptic α1-antagonist activity: inhibition of norepinephrine-induced contraction of the isolated aorta of the rat; settings: read-out: ED30 (concentration which causes 30% inhibition of the contraction induced by norepinephrine)
T1 construct: isolated aorta of the rat; from tissue; host or cells: rat isolated aorta
T1 sequence (P23944 1-561): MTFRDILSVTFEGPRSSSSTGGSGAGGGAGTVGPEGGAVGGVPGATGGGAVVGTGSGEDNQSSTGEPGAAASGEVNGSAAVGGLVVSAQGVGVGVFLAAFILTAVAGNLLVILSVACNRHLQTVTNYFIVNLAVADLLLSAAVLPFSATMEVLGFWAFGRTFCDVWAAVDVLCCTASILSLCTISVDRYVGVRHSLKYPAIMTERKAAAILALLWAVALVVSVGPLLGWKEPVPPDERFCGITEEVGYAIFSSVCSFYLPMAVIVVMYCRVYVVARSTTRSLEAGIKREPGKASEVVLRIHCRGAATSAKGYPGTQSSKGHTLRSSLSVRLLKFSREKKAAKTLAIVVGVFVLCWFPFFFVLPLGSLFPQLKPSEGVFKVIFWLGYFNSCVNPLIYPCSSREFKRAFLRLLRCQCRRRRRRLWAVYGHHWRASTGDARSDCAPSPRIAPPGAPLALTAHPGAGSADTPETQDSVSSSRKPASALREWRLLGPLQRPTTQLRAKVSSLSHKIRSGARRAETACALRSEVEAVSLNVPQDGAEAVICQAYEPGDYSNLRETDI
Method: A non selective α-agonist substance such as norepinephrine induces a sustained contraction of the isolated aorta of the rat (J. M. Van Rossum Arch. Int. Pharmacodyn. 143, (1963), 299-330). This contraction can be inhibited by α1 -adrenergic blocking substances such as prazosin. In this test, a control contraction is carried out with norepinephrine at 3.2×10^-8 mole/l. After washing and stabilizing the preparation, the compound to be tested is added to the bath. Norepinephrine is added 5 minutes after the compound tested, and inhibition of the contraction induced by norepinephrine is measured. Next, inhibition of the contraction induced by norepinephrine is evaluated a second and third time in the presence of increasing concentrations of the compound tested.

male NMRI mice = experiment: Toxicity, Irwin's test; type: in vivo; settings: intraperitoneal
Method: The toxicity of the compounds of the invention has been determined in male NMRI mice by means of Irwin's test (S. Irwin, Psychopharmacologia (Berl.), 13, (1968), 222-257).
Progressive doses of the product studied are administered intraperitoneally to groups of three mice until a lethal dose is reached (dose causing the death of two out of three animals in 48 hours). It follows from this Table that the compounds of the invention are not very toxic.

[4] = 0.5 h, read-out: ΔPa (maximum lowering of arterial pressure)
[5] = 0.5 h, read-out: ΔT3 (anti-ischemic effect: change in elevation of the T wave, occlusion 3 vs occlusion 2)
[6] = 1 h, read-out: ΔPb (maximum lowering of arterial pressure)
[7] = 1 h, read-out: ΔT4 (anti-ischemic effect: change in elevation of the T wave, occlusion 4 vs occlusion 2)

Row | Compound | affinity towards α-adrenergic receptors, in words (α-adrenergic receptors) | change in vivo at 3 µmol/kg [1, 4] | change in vivo at 3 µmol/kg [1, 5] | change in vivo at 3 µmol/kg [1, 6] | change in vivo at 3 µmol/kg [1, 7] | IC30 (concentration that reduces by 30% the intensity of the contraction of the muscle) [2] | IC30 [3] | Lethal dose (dose causing the death of two out of three animals in 48 hours) (male NMRI mice) | change in vivo at 1 µmol/kg [1, 4] | change in vivo at 1 µmol/kg [1, 5] | change in vivo at 1 µmol/kg [1, 6] | change in vivo at 1 µmol/kg [1, 7]
1 | CC1(c2c[nH]cn2)CCCc2ccccc21 (stereo not shown) [4-(1,2,3,4-tetrahydro-1-methyl-1-naphthalenyl)-1H-imidazole] | slight affinity |  |  |  |  |  |  |  |  |  |  | 
2 | Cl.Oc1ccc2c(c1)CCC2c1c[nH]cn1 (stereo not shown) [Compound H, 2,3-dihydro-1-(1H-imidazol-4-yl)-1H-indene-5-ol hydrochloride] |  | -23% | -48% | -19% | -55% | 0.036 µM | 0.21 µM | 236.7 mg/kg |  |  |  | 
3 | COc1cccc2c1C(c1c[nH]cn1)CCC2 (stereo not shown) [Compound I, 4-(1,2,3,4-tetrahydro-8-methoxy-1-naphthalenyl)-1H-imidazole] |  |  |  |  |  | 8 µM | 1.8 µM | 228.3 mg/kg | -26% | -37% | -16% | -57%
4 | COc1cc2c(cc1OC)C(c1c[nH]cn1)CCC2 (stereo not shown) [Compound J, 4-(1,2,3,4-tetrahydro-6,7-dimethoxy-1-naphthalenyl)-1H-imidazole] |  |  |  |  |  | 0.13 µM | 2.9 µM | 258.3 mg/kg | -23% | -31% | -16% | -29%
